Article PMC7316778 (Nature Communications, 2020)
Several values for one entry are separate records, joined by “and”; a condition that tells them apart may be missing. Equal values may be shown once. Read-outs that look alike come from different tables or passages of the source.

Key:
Experiment in all cases: SelectScreen kinase assay
[1] = biological target: AMPK A1/B1/G1 (Homo sapiens, UniProt Q13131)
Description: (§1) Selectivity profiling assays were performed by the Invitrogen SelectScreen™ Services. […] The concentration of ATP was selected to be equal to the KM, unless indicated otherwise.

[2] = biological target: CDK5/p25 (Homo sapiens, UniProt Q00535); conditions: 1 h, 1 μM WEL028, 1 h preincubation
Description: as §1

[3] = biological target: DMPK (Homo sapiens, UniProt Q09013)
Description: as §1

[4] = biological target: T1, HIPK4 (Homo sapiens, UniProt Q8NE63)
T1 sequence (Q8NE63 1-616): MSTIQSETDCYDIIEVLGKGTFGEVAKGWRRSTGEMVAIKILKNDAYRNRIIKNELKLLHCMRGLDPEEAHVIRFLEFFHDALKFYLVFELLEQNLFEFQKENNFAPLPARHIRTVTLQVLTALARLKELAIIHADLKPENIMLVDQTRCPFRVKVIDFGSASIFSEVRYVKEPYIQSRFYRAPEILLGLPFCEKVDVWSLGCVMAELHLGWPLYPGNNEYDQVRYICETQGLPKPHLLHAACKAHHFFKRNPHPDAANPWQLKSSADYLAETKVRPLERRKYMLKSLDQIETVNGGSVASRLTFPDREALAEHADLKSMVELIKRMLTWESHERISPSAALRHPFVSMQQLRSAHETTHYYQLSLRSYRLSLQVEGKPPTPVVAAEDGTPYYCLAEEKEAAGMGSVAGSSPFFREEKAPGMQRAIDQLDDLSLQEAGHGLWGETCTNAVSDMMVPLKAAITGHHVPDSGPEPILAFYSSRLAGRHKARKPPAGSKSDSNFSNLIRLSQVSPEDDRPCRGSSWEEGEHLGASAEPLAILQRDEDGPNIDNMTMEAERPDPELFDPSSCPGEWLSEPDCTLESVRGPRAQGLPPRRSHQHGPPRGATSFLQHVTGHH
Description: as §1

[5] = biological target: KDR (VEGFR2) (Homo sapiens, UniProt P35968)
Description: as §1

[6] = biological target: MAPK1 (ERK2) (Homo sapiens, UniProt P28482)
Description: as §1

[7] = biological target: MKNK1 (MNK1) (Homo sapiens, UniProt Q9BUB5)
Description: as §1

[8] = biological target: PIK3C2A (PI3K-C2 alpha) (Homo sapiens, UniProt O00443); conditions: 1 h, 1 μM WEL028, 1 h preincubation
Description: as §1

[9] = biological target: PIK3C3 (hVPS34) (Homo sapiens, UniProt Q8NEB9)
Description: as §1

[10] = biological target: T2, PRKCZ (PKC zeta) (Homo sapiens, UniProt Q05513); conditions: for Inhibition at 1 µM (%): PRKCZ (PKC zeta), ZLYTE, ATP Km app
T2 sequence (Q05513 1-592): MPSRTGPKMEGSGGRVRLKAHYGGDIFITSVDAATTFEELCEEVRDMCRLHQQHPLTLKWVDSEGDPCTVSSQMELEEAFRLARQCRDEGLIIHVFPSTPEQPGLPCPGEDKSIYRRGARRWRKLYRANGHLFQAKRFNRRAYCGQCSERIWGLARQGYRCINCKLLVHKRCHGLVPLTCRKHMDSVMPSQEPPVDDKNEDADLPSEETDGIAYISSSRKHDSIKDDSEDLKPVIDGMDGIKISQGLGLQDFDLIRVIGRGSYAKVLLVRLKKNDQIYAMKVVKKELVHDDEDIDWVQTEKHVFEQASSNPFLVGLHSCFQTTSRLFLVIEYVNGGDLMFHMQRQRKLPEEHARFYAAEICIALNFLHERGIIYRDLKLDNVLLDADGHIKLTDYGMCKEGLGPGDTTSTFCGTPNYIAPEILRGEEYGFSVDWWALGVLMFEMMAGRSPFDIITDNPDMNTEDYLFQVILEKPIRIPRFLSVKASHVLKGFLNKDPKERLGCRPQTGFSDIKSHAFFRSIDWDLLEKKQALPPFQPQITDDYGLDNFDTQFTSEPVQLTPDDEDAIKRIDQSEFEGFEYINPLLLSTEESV
Description: as §1

[11] = biological target: SYK (Homo sapiens, UniProt P43405)
Description: as §1

[12] = biological target: TLK2 (Homo sapiens, UniProt Q86UE8)
Description: as §1

[13] = 1 h, 1 μM WEL028, 1 h preincubation

Sequence of DMPK (Q09013 whole entry): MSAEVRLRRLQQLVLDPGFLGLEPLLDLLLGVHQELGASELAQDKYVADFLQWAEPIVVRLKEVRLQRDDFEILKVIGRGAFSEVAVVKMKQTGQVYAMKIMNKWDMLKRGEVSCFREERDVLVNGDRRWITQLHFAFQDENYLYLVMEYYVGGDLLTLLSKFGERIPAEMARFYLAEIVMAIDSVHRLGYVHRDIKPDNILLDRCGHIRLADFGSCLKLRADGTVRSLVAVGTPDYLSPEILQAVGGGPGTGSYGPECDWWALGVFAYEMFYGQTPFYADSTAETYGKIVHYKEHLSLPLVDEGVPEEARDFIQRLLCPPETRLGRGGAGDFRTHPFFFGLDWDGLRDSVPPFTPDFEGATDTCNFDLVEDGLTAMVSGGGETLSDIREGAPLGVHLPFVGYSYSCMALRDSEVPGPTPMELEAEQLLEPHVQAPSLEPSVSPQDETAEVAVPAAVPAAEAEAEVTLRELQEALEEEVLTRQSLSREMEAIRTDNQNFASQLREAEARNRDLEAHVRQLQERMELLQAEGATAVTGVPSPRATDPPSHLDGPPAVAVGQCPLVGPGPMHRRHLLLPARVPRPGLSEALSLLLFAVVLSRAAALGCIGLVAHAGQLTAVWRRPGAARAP
Sequence of PIK3C3 (hVPS34) (Q8NEB9 whole entry): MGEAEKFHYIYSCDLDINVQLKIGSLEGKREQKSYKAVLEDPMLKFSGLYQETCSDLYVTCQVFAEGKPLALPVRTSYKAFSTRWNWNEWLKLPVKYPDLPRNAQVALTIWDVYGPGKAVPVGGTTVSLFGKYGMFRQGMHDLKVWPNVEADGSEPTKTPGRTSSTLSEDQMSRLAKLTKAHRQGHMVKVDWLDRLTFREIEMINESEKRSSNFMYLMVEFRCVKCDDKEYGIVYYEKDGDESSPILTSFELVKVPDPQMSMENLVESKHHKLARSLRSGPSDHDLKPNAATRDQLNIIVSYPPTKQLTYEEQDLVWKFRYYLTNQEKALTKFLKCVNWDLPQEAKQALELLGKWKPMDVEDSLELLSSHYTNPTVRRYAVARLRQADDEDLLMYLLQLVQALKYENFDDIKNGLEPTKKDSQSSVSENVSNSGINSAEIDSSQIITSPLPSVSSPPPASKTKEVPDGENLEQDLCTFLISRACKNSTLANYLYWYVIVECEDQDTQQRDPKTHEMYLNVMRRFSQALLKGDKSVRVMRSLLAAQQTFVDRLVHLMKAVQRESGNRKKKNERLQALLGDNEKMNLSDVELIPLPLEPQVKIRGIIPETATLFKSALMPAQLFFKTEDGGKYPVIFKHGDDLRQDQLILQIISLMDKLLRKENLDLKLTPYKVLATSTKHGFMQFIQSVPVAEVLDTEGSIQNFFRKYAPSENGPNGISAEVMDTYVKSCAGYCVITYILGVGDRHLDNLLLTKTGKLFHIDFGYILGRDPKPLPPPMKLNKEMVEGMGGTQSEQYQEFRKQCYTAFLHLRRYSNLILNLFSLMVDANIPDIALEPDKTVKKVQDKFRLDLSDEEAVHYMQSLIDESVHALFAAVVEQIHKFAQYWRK
Sequence of KDR (VEGFR2) (P35968 20-1356, species assumed): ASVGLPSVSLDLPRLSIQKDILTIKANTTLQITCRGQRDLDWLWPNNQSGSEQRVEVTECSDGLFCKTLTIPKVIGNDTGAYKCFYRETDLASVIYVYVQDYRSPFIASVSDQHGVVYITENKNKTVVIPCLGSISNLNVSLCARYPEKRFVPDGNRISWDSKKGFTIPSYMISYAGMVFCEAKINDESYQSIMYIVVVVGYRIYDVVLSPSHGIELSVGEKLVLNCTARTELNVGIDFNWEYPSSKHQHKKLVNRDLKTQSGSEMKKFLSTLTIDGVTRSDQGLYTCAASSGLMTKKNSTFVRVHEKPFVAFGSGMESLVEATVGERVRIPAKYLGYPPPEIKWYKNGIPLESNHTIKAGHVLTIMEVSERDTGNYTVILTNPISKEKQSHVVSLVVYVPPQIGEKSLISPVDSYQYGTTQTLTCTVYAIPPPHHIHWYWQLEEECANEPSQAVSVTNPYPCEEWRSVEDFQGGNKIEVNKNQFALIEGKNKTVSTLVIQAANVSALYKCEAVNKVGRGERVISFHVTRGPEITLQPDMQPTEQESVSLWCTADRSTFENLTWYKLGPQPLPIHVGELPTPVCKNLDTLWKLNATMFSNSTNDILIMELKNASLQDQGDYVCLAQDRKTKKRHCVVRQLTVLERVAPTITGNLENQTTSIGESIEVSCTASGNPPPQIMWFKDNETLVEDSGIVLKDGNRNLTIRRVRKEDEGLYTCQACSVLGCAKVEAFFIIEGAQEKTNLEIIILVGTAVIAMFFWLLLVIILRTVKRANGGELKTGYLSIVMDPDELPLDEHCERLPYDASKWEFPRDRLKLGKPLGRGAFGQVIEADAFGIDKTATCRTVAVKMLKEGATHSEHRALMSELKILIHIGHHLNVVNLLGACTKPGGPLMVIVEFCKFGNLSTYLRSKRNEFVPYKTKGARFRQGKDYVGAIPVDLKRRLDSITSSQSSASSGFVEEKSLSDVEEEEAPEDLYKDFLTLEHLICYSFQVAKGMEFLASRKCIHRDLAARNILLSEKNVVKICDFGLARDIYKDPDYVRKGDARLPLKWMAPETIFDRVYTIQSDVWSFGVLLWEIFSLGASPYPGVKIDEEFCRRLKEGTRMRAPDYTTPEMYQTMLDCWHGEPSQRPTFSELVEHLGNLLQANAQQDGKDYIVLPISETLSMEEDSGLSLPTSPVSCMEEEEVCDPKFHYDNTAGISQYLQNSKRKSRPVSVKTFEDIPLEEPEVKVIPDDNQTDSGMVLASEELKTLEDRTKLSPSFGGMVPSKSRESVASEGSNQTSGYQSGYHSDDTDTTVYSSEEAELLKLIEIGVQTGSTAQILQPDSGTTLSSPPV
Sequence of TLK2 (Q86UE8 whole entry): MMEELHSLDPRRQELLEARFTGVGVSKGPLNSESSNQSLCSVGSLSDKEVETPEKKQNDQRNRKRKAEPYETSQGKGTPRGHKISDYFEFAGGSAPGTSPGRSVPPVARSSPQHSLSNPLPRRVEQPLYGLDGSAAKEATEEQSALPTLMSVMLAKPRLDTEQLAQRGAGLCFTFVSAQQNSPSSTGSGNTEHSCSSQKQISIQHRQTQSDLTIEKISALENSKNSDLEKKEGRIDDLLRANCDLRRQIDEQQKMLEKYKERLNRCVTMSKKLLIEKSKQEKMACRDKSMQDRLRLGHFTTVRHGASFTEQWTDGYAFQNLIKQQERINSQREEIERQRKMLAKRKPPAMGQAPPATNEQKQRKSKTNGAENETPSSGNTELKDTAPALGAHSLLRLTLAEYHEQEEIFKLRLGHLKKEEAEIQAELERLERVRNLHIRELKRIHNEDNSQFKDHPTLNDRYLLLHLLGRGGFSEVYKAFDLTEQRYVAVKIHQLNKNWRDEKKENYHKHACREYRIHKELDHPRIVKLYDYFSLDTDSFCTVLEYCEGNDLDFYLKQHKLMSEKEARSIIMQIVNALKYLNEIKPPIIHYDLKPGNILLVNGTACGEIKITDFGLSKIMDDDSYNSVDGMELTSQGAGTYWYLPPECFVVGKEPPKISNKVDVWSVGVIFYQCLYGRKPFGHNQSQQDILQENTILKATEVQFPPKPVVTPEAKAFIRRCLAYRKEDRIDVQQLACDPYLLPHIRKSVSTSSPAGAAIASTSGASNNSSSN
Sequence of MKNK1 (MNK1) (Q9BUB5 whole entry): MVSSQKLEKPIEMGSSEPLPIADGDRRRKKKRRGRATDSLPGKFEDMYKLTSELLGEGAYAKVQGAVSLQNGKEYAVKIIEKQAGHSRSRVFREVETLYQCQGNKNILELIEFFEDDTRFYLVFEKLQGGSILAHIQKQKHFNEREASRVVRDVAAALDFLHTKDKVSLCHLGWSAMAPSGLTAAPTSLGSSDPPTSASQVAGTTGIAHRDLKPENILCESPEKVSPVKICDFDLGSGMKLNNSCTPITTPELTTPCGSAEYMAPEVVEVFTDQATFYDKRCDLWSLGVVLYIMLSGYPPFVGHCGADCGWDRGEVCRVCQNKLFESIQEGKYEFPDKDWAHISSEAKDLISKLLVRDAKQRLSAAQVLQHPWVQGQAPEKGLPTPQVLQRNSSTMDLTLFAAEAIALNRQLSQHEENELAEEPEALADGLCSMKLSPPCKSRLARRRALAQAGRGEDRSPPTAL
Sequence of MAPK1 (ERK2) (P28482 whole entry): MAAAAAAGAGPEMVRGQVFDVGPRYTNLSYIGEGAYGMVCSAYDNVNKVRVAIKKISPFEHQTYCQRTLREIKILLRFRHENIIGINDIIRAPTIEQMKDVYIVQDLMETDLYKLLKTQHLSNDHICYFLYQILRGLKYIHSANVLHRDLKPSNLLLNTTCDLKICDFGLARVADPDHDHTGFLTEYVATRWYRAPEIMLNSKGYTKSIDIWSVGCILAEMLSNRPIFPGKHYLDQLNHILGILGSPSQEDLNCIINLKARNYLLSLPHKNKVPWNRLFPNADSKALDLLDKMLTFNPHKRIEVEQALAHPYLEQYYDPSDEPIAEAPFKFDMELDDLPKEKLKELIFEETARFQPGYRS
Sequence of CDK5/p25 (Q00535 whole entry): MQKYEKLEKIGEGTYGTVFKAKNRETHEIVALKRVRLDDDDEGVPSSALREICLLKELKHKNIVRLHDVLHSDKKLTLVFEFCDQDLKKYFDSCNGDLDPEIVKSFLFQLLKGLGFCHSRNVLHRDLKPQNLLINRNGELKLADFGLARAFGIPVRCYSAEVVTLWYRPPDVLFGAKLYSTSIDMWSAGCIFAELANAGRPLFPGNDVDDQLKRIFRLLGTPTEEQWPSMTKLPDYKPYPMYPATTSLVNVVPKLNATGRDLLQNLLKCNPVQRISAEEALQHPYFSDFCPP
Sequence of CDK5/p25 (Q15078 99-307 partner limits assumed): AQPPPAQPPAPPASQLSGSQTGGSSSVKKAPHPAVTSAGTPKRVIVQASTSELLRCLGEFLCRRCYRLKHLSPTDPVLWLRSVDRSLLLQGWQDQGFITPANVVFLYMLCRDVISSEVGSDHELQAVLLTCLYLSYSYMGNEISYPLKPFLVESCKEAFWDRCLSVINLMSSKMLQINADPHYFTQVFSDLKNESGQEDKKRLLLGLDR

C#CCOc1ccc(Nc2ncc(Cl)c(Nc3ccccc3NC(=O)C=C)n2)c(OC)c1 [Compound 6]
inhibition at 1 µM [1, 13]: 13% | Inhibition at 1 µM (%) ([1]; AMPK A1/B1/G1, 1 µM, ZLYTE, ATP Km app): 21% | inhibition at 1 µM [2]: 2% | inhibition at 1 µM [3, 13]: 3% | Inhibition at 1 µM (%) ([3]; DMPK, 1 µM, LanthaScreen Binding, listed as WEL028, 1 µM): 1% and 5% | inhibition at 1 µM [4, 13]: 14% | Inhibition at 1 µM (%) ([4]; HIPK4, 1 µM, ZLYTE, ATP Km app, listed as WEL028, 1 µM): 16% | inhibition at 1 µM ([4]; read-out: Inhibition at 1 µM (%), HIPK4, 1 µM, ZLYTE, ATP Km app): 12% | IC50 [5]: 631 nM | inhibition at 1 µM [5, 13]: 67% | inhibition at 10 µM ([5]; 1 h, log[inhibitor] (M) -5.00, ZLYTE, ATP Km app): 101% | inhibition at 3.31 µM ([5]; 1 h, log[inhibitor] (M) -5.48, ZLYTE, ATP Km app): 99% | inhibition at 1.12 µM ([5]; 1 h, log[inhibitor] (M) -5.95, ZLYTE, ATP Km app): 70% | inhibition at 0.372 µM ([5]; 1 h, log[inhibitor] (M) -6.43, ZLYTE, ATP Km app): 37% | inhibition at 0.123 µM ([5]; 1 h, log[inhibitor] (M) -6.91, ZLYTE, ATP Km app): 26% | inhibition at 0.04074 µM ([5]; 1 h, log[inhibitor] (M) -7.39, ZLYTE, ATP Km app): 16% | inhibition at 0.00151 µM ([5]; 1 h, log[inhibitor] (M) -8.82, ZLYTE, ATP Km app): 17% | inhibition at 0.00049 µM ([5]; 1 h, log[inhibitor] (M) -9.31, ZLYTE, ATP Km app): 17% | Inhibition at 1 µM (%) ([5]; KDR (VEGFR2), 1 µM, ZLYTE, ATP Km app, listed as WEL028, 1 µM): 65% | inhibition at 1 µM ([5]; read-out: Inhibition at 1 µM (%), KDR (VEGFR2), 1 µM, ZLYTE, ATP Km app): 69% | inhibition at 1 µM ([6]; 1 h): 26% | inhibition at 1 µM ([6]; read-out: Inhibition at 1 µM (%)): 26% | inhibition at 1 µM [7, 13]: 13% | Inhibition at 1 µM (%) ([7]; MKNK1 (MNK1), 1 µM, ZLYTE, ATP Km app): 21% | inhibition at 1 µM [8]: 5% | inhibition at 1 µM [9, 13]: 11% | Inhibition at 1 µM (%) ([9]; PIK3C3 (hVPS34), 1 µM, Adapta, ATP Km app, listed as WEL028, 1 µM): 12% | inhibition at 1 µM ([9]; read-out: Inhibition at 1 µM (%), PIK3C3 (hVPS34), 1 µM, Adapta, ATP Km app): 11% | inhibition at 1 µM [10, 13]: -1% | Inhibition at 1 µM (%) [10]: 3% | Inhibition at 1 µM (%) ([10]; listed as WEL028, 1 µM): -5% | Inhibition (%) ([11]; 1 μM WEL028, 1 h preincubation): did not inhibit | Inhibition at 1 µM (%) ([11]; 1 µM, ZLYTE, ATP Km app, listed as WEL028, 1 µM): 1% and 5% | Inhibition at 1 µM (%) ([12]; 1 µM, LanthaScreen Binding, listed as WEL028, 1 µM): 1% | inhibition at 1 µM [12, 13]: 0%
